Tests used:
[1] = molecular target: 5-hydroxytryptamine receptor 2C (Homo sapiens) (UniProt P28335); conditions: Compound concentration 10.0 uM
[2] = molecular target: Mitogen-activated protein kinase kinase kinase 1 (Homo sapiens) (UniProt Q13233); conditions: Compound concentration 1000.0 nM
[3] = molecular target: Fibroblast growth factor receptor 2 (Homo sapiens) (UniProt P21802); conditions: Compound concentration 1000.0 nM
[4] = molecular target: Angiopoietin-1 receptor (Homo sapiens) (UniProt Q02763); conditions: Compound concentration 1000.0 nM
[5] = tested on: Hepatocyte growth factor receptor (Homo sapiens), P08581 [M1250T]; conditions: Compound concentration 1000.0 nM
[6] = tested on: Tyrosine-protein kinase ABL1 (Homo sapiens), P00519 [H396P]; conditions: Compound concentration 1000.0 nM
[7] = molecular target: Receptor-interacting serine/threonine-protein kinase 2 (Homo sapiens) (UniProt O43353); conditions: Compound concentration 1000.0 nM
Chain of Receptor-interacting serine/threonine-protein kinase 2 (Homo sapiens) (O43353 whole entry): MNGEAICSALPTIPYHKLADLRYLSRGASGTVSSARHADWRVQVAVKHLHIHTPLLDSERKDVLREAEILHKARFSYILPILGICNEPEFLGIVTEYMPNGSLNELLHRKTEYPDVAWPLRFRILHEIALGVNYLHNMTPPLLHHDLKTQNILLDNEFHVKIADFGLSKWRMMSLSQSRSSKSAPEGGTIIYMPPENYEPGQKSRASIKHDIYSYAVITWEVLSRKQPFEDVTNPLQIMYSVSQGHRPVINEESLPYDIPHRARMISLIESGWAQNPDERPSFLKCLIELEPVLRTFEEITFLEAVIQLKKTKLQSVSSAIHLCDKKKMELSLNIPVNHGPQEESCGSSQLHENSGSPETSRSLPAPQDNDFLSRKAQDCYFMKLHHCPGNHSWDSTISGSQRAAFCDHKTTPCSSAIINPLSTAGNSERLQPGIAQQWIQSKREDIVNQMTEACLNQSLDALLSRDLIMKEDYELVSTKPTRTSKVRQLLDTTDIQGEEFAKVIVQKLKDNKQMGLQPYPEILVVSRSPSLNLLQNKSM

[8] = molecular target: Mitogen-activated protein kinase 14 (Homo sapiens) (UniProt Q16539); conditions: Compound concentration 1000.0 nM
Chain of Mitogen-activated protein kinase 14 (Homo sapiens) (Q16539 whole entry): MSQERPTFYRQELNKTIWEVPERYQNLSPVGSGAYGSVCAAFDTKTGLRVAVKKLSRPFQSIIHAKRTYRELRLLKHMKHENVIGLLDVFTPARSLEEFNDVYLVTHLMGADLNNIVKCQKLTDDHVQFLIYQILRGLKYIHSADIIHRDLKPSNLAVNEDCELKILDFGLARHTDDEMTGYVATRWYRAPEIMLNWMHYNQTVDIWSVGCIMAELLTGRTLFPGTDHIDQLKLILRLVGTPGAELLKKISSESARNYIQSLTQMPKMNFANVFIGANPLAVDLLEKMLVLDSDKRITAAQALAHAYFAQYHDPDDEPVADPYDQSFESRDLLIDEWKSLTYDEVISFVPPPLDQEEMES

[9] = molecular target: Casein kinase II subunit alpha (Homo sapiens) (UniProt P68400); conditions: Compound concentration 1000.0 nM
[10] = molecular target: Mitogen-activated protein kinase 4 (Homo sapiens) (UniProt P31152); conditions: Compound concentration 1000.0 nM
[11] = molecular target: G protein-coupled receptor kinase 4 (Homo sapiens) (UniProt P32298); conditions: Compound concentration 1000.0 nM
[12] = molecular target: D(4) dopamine receptor (Homo sapiens) (UniProt P21917); conditions: Compound concentration 10.0 uM
[13] = molecular target: Cyclin-dependent kinase 15 (Homo sapiens) (UniProt Q96Q40); conditions: Compound concentration 1000.0 nM
[14] = molecular target: Tyrosine-protein kinase SYK (Homo sapiens) (UniProt P43405); conditions: Compound concentration 1000.0 nM
[15] = molecular target: 1-phosphatidylinositol 3-phosphate 5-kinase (Homo sapiens) (UniProt Q9Y2I7); conditions: Compound concentration 1000.0 nM
[16] = molecular target: Ephrin type-A receptor 7 (Homo sapiens) (UniProt Q15375); conditions: Compound concentration 1000.0 nM
[17] = molecular target: Death-associated protein kinase 2 (Homo sapiens) (UniProt Q9UIK4); conditions: Compound concentration 1000.0 nM
[18] = molecular target: Serine/threonine-protein kinase WNK1 (Homo sapiens) (UniProt Q9H4A3); conditions: Compound concentration 1000.0 nM
[19] = molecular target: Macrophage colony-stimulating factor 1 receptor (Homo sapiens) (UniProt P07333); conditions: Compound concentration 1000.0 nM
Chain of Macrophage colony-stimulating factor 1 receptor (Homo sapiens) (P07333 whole entry): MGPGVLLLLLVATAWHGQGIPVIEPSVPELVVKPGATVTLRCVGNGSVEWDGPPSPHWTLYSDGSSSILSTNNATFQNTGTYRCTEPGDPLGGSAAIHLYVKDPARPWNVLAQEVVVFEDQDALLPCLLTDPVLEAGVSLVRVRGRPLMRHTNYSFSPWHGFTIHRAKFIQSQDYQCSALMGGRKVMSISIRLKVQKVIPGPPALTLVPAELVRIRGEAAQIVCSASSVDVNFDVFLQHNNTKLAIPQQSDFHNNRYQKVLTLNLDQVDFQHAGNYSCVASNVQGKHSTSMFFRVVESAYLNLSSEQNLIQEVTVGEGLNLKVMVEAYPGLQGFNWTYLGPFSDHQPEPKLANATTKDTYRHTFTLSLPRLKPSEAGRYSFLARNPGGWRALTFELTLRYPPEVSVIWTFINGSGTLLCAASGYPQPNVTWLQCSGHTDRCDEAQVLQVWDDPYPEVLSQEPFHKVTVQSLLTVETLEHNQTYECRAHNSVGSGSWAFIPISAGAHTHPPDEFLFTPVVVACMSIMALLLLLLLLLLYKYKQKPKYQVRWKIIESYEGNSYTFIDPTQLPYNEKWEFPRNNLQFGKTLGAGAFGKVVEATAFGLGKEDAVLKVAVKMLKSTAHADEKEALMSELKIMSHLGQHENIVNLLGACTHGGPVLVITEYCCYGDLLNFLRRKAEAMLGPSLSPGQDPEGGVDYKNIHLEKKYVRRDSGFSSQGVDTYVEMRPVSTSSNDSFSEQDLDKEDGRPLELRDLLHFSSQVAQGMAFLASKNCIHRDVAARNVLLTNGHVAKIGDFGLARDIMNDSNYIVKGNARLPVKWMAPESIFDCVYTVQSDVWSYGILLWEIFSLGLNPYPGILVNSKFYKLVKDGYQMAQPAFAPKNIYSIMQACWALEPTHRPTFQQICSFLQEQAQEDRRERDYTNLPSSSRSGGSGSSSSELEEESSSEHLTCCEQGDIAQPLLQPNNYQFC

[20] = molecular target: Ribosomal protein S6 kinase alpha-3 (Homo sapiens) (UniProt P51812); conditions: Compound concentration 1000.0 nM
[21] = molecular target: Mitogen-activated protein kinase kinase kinase kinase 3 (Homo sapiens) (UniProt Q8IVH8); conditions: Compound concentration 1000.0 nM
[22] = molecular target: Serine/threonine-protein kinase D3 (Homo sapiens) (UniProt O94806); conditions: Compound concentration 1000.0 nM
Chain of Serine/threonine-protein kinase D3 (Homo sapiens) (O94806 whole entry): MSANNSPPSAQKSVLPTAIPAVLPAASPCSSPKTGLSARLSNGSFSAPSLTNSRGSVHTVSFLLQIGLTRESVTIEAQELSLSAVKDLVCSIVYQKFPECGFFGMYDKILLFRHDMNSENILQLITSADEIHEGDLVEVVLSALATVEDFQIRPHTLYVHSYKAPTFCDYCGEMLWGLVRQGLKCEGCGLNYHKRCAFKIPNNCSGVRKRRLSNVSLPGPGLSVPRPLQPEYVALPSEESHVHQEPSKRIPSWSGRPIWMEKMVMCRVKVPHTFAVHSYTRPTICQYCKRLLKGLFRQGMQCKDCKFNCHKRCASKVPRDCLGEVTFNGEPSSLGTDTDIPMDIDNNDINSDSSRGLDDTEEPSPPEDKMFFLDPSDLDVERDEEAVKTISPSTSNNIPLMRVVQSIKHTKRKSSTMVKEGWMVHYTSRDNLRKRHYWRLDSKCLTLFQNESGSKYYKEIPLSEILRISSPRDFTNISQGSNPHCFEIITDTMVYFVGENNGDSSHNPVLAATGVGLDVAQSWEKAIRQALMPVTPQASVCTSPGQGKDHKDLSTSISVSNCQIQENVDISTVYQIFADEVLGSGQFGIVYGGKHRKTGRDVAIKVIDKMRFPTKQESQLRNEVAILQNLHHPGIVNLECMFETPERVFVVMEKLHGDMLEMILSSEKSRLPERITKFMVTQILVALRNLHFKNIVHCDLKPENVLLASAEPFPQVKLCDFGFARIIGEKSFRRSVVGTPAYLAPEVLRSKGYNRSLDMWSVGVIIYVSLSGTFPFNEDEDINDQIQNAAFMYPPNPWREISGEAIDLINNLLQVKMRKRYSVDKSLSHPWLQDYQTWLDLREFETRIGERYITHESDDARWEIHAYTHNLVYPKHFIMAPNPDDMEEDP

[23] = molecular target: Serine/threonine-protein kinase Nek6 (Homo sapiens) (UniProt Q9HC98); conditions: Compound concentration 1000.0 nM
[24] = molecular target: Serine/threonine-protein kinase PLK3 (Homo sapiens) (UniProt Q9H4B4); conditions: Compound concentration 1000.0 nM
[25] = molecular target: Tyrosine-protein kinase Fes/Fps (Homo sapiens) (UniProt P07332); conditions: Compound concentration 1000.0 nM
[26] = molecular target: Serine/threonine-protein kinase LATS2 (Homo sapiens) (UniProt Q9NRM7); conditions: Compound concentration 1000.0 nM
[27] = molecular target: Macrophage colony-stimulating factor 1 receptor (Homo sapiens) (UniProt P07333); conditions: Compound concentration 1000.0 nM; remark: listed apart in the source
[28] = molecular target: Inhibitor of nuclear factor kappa-B kinase subunit epsilon (Homo sapiens) (UniProt Q14164); conditions: Compound concentration 1000.0 nM
[29] = molecular target: Tyrosine-protein kinase JAK2 (Homo sapiens) (UniProt O60674); conditions: Compound concentration 1000.0 nM
[30] = molecular target: Serine/threonine-protein kinase ULK1 (Homo sapiens) (UniProt O75385); conditions: Compound concentration 1000.0 nM
[31] = molecular target: Platelet-derived growth factor receptor beta (Homo sapiens) (UniProt P09619); conditions: Compound concentration 1000.0 nM
[32] = molecular target: Serine/threonine-protein kinase D2 (Homo sapiens) (UniProt Q9BZL6); conditions: Compound concentration 1000.0 nM
[33] = molecular target: Myosin-IIIa (Homo sapiens) (UniProt Q8NEV4); conditions: Compound concentration 1000.0 nM
[34] = molecular target: Death-associated protein kinase 3 (Homo sapiens) (UniProt O43293); conditions: Compound concentration 1000.0 nM
[35] = molecular target: Serine/threonine-protein kinase PLK1 (Homo sapiens) (UniProt P53350); conditions: Compound concentration 1000.0 nM
[36] = molecular target: Serine/threonine-protein kinase haspin (Homo sapiens) (UniProt Q8TF76); conditions: Compound concentration 1000.0 nM
Chain of Serine/threonine-protein kinase haspin (Homo sapiens) (Q8TF76 whole entry): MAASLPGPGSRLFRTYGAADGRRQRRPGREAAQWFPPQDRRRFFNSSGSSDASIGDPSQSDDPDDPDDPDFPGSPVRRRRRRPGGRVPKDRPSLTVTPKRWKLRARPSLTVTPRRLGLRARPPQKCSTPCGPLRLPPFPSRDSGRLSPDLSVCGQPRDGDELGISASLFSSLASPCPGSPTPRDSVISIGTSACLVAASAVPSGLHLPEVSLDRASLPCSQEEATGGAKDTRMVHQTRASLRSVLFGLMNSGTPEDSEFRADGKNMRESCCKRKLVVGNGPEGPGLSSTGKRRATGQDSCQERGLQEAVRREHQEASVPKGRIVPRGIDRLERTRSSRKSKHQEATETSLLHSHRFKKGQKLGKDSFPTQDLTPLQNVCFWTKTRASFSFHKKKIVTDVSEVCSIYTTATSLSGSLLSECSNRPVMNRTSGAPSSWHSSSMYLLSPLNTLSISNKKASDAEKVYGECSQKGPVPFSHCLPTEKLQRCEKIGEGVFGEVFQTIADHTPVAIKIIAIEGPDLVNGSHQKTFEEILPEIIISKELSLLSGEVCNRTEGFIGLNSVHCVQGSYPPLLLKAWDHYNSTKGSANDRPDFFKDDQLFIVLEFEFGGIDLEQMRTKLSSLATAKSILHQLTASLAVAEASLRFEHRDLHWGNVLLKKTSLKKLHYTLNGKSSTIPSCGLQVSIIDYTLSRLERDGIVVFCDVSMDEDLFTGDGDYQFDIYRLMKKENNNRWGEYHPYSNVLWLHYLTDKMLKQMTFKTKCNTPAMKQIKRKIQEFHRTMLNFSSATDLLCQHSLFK

[37] = molecular target: cAMP-dependent protein kinase catalytic subunit beta (Homo sapiens) (UniProt P22694); conditions: Compound concentration 1000.0 nM
[38] = molecular target: Mitogen-activated protein kinase 12 (Homo sapiens) (UniProt P53778); conditions: Compound concentration 1000.0 nM
[39] = tested on: Tyrosine-protein kinase ABL1 (Homo sapiens), P00519 [E255K]; conditions: Compound concentration 1000.0 nM
[40] = molecular target: Serine/threonine-protein kinase DCLK1 (Homo sapiens) (UniProt O15075); conditions: Compound concentration 1000.0 nM
[41] = molecular target: Death-associated protein kinase 1 (Homo sapiens) (UniProt P53355); conditions: Compound concentration 1000.0 nM
Chain of Death-associated protein kinase 1 (Homo sapiens) (P53355 whole entry, looked up): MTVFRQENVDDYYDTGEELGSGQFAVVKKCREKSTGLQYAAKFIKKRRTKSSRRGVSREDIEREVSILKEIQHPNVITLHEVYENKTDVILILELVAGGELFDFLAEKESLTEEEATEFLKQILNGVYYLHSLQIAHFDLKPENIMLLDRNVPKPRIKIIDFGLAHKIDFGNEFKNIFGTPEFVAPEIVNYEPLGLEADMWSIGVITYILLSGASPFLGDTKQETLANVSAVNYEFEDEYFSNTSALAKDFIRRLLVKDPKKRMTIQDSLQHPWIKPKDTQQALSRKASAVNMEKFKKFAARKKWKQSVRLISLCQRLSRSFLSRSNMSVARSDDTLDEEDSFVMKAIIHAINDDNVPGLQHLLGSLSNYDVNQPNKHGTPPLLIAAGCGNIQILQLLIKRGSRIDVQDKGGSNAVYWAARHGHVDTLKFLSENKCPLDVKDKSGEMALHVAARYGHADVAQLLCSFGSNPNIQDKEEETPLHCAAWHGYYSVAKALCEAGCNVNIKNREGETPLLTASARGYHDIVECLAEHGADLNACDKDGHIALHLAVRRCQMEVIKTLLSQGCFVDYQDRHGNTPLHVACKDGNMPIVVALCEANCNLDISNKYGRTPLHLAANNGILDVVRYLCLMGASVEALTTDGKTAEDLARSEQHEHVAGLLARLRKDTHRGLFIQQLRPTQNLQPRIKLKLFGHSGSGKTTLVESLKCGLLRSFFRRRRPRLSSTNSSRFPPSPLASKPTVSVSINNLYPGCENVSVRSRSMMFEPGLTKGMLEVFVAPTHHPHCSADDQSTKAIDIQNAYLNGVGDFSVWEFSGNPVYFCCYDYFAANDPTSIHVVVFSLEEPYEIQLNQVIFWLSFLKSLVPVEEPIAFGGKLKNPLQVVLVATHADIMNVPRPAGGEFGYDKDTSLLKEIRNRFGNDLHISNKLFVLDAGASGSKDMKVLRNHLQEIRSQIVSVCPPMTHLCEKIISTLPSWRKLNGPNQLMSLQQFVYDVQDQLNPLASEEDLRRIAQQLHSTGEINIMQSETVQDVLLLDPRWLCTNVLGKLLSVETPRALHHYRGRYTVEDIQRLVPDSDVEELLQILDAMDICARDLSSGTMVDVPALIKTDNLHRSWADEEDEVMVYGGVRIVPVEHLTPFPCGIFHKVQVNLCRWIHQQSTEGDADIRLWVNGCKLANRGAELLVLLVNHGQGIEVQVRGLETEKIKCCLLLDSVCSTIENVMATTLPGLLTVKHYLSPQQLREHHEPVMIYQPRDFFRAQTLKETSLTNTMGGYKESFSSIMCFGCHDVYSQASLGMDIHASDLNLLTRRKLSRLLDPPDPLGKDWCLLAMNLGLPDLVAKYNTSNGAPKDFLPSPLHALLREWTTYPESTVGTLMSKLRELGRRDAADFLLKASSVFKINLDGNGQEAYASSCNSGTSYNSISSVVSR

[42] = molecular target: Serine/threonine-protein kinase ICK (Homo sapiens) (UniProt Q9UPZ9); conditions: Compound concentration 1000.0 nM
[43] = molecular target: Myosin-IIIb (Homo sapiens) (UniProt Q8WXR4); conditions: Compound concentration 1000.0 nM
[44] = molecular target: Serine/threonine-protein kinase NIM1 (Homo sapiens) (UniProt Q8IY84); conditions: Compound concentration 1000.0 nM
[45] = molecular target: Mitogen-activated protein kinase 8 (Homo sapiens) (UniProt P45983); conditions: Compound concentration 1000.0 nM
[46] = molecular target: Cyclin-dependent kinase 14 (Homo sapiens) (UniProt O94921); conditions: Compound concentration 1000.0 nM

Q: C[C@H](c1ccc(F)cc1)N(Cc1cccc(C(=O)O)c1)C(=O)c1cnc2ccccc2c1 [PF-05105679] was tested. Which inhibition [1] did it give?
A: 6.54%

Q: What about the residual activity [2] of the same compound?
A: 100%

Q: What about the residual activity [3] of the same compound?
A: 74%

Q: And the residual activity [4]?
A: 98%

Q: And the residual activity [5]?
A: 93%

Q: What about the residual activity [6] of the same compound?
A: 73%

Q: What about the residual activity [7] of the same compound?
A: 82%

Q: And the residual activity [8]?
A: 0%

Q: What about the residual activity [9] of the same compound?
A: 100%

Q: And the residual activity [10]?
A: 93%

Q: And the residual activity [11]?
A: 100%

Q: And the inhibition [12]?
A: 10.1%

Q: What about the residual activity [13] of the same compound?
A: 100%

Q: And the residual activity [14]?
A: 87%

Q: What about the residual activity [15] of the same compound?
A: 100%

Q: What about the residual activity [16] of the same compound?
A: 80%

Q: And the residual activity [17]?
A: 88%

Q: What about the residual activity [18] of the same compound?
A: 100%

Q: What about the residual activity [19] of the same compound?
A: 100%

Q: What about the residual activity [20] of the same compound?
A: 89%

Q: And the residual activity [21]?
A: 90%

Q: What about the residual activity [22] of the same compound?
A: 100%

Q: And the residual activity [23]?
A: 92%

Q: What about the residual activity [24] of the same compound?
A: 100%

Q: And the residual activity [25]?
A: 100%

Q: What about the residual activity [26] of the same compound?
A: 64%

Q: And the residual activity [27]?
A: 65%

Q: What about the residual activity [28] of the same compound?
A: 79%

Q: And the residual activity [29]?
A: 88%

Q: What about the residual activity [30] of the same compound?
A: 86%

Q: What about the residual activity [31] of the same compound?
A: 100%

Q: What about the residual activity [32] of the same compound?
A: 100%

Q: What about the residual activity [33] of the same compound?
A: 100%

Q: What about the residual activity [34] of the same compound?
A: 100%

Q: What about the residual activity [35] of the same compound?
A: 79%

Q: What about the residual activity [36] of the same compound?
A: 100%

Q: And the residual activity [37]?
A: 82%

Q: What about the residual activity [38] of the same compound?
A: 65%

Q: What about the residual activity [39] of the same compound?
A: 100%

Q: And the residual activity [40]?
A: 100%

Q: And the residual activity [41]?
A: 97%

Q: What about the residual activity [42] of the same compound?
A: 100%

Q: What about the residual activity [43] of the same compound?
A: 100%

Q: What about the residual activity [44] of the same compound?
A: 79%

Q: What about the residual activity [45] of the same compound?
A: 100%

Q: And the residual activity [46]?
A: 100%

From ChEMBL document CHEMBL4507296 (2021)
